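GI50: concentration for 50% inhibition of growth. TGI is the concentration that stops growth completely.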
Tests used:
Experiment in all cases: inhibition of tumour cell growth, NCI panel, 384-well format
[1] = system: 786-0 renal
[2] = system: A498 renal
[3] = system: A549 NSCLC
[4] = system: ACHN renal
[5] = system: BT-549 breast
[6] = system: CAKI-1 renal
[7] = system: CCRF-CEM leukemia
[8] = system: COLO 205 colon
[9] = system: DU-145 prostate
[10] = system: HCC-2998 colon
[11] = system: HCT-116 colon
[12] = system: HCT-15 colon
[13] = system: HL-60(TB) leukemia
[14] = system: HOP-62 NSCLC
[15] = system: HOP-92 NSCLC
[16] = system: HT29 colon
[17] = system: IGROV1 ovarian
[18] = system: K-562 leukemia
[19] = system: KM12 colon
[20] = system: LOX IMVI melanoma
[21] = system: M14 melanoma
[22] = system: MALME-3M melanoma
[23] = system: MCF7 breast
[24] = system: MDA-MB-231 breast
[25] = system: MDA-MB-435 melanoma
[26] = system: MDA-MB-468 breast
[27] = system: MOLT-4 leukemia
[28] = system: NCI-H226 lung
[29] = system: NCI-H23 lung
[30] = system: NCI-H322M lung
[31] = system: NCI-H460 NSCLC
[32] = system: NCI-H522 lung
[33] = system: NCI/ADR-RES ovarian
[34] = system: OVCAR-3 ovarian
[35] = system: OVCAR-4 ovarian
[36] = system: OVCAR-5 ovarian
[37] = system: OVCAR-8 ovarian
[38] = system: PC-3 prostate
[39] = system: RPMI-8226 leukemia
[40] = system: RXF 393 renal
[41] = system: SF-268 CNS
[42] = system: SF-295 CNS
[43] = system: SF-539 CNS
[44] = system: SK-MEL-2 melanoma
[45] = system: SK-MEL-28 melanoma
[46] = system: SK-MEL-5 melanoma
[47] = system: SK-OV-3 ovarian
[48] = system: SN12C renal
[49] = system: SNB-19 CNS
[50] = system: SR leukemia
[51] = system: SW-620 colon
[52] = system: T-47D breast
[53] = system: TK-10 renal
[54] = system: U251 glioblastoma
[55] = system: UACC-257 melanoma
[56] = system: UACC-62 melanoma
[57] = system: UO-31 renal

Molecule `Cc1c(N(C(=O)c2cc(-c3cc(Cl)ccc3C(=O)N3Cc4ccccc4C[C@H]3CN3CCOCC3)n(C)c2C)c2ccc(O)cc2)cc(C#N)n1C` has a GI50 [1] of 6.22 µM, a TGI [1] of 30 µM and a GI50 [2] of 4.79 µM. The TGI [2] was 19 µM, the GI50 [3] was 7.07 µM and the TGI [3] was greater than 100 µM. The GI50 [4] was 7.31 µM, the TGI [4] was greater than 100 µM and the GI50 [5] was 12.5 µM. The TGI [5] was 30.9 µM, the GI50 [6] was 9.01 µM and the TGI [6] was 66.1 µM. For the same molecule, the GI50 [7] was 1.68 µM, the TGI [7] was 3.11 µM and the GI50 [8] was 25.5 µM. For the same molecule, the TGI [8] was greater than 100 µM, the GI50 [9] was 16.3 µM and the TGI [9] was greater than 100 µM. It also gave a GI50 [10] of 3.35 µM, a TGI [10] of 8.64 µM and a GI50 [11] of 4.12 µM. The TGI [11] was greater than 100 µM, the GI50 [12] was 9.36 µM and the TGI [12] was 24.1 µM. The GI50 [13] was 0.0546 µM, the TGI [13] was 1.19 µM and the GI50 [14] was 5.87 µM. It also gave a TGI [14] of 29.3 µM, a GI50 [15] of 2.58 µM and a TGI [15] of 7.15 µM. For the same molecule, the GI50 [16] was 10.9 µM, the TGI [16] was 43.6 µM and the GI50 [17] was 13.5 µM. For the same molecule, the TGI [17] was greater than 100 µM, the GI50 [18] was 4.85 µM and the TGI [18] was 38.2 µM. It also gave a GI50 [19] of 16.1 µM, a TGI [19] greater than 100 µM and a GI50 [20] of 10.4 µM. For the same molecule, the TGI [20] was 33 µM, the GI50 [21] was 12 µM and the TGI [21] was 34.1 µM. The GI50 [22] was 19.2 µM, the TGI [22] was 47.2 µM and the GI50 [23] was 11.4 µM. It also gave a TGI [23] greater than 100 µM, a GI50 [24] of 3.74 µM and a TGI [24] of 14.1 µM. For the same molecule, the GI50 [25] was 5.21 µM, the TGI [25] was 19.3 µM and the GI50 [26] was 2.84 µM. The TGI [26] was 7.25 µM, the GI50 [27] was 1.61 µM and the TGI [27] was 2.97 µM. The GI50 [28] was 9.16 µM, the TGI [28] was 22.2 µM and the GI50 [29] was 9.38 µM. It also gave a TGI [29] greater than 100 µM, a GI50 [30] of 24.7 µM and a TGI [30] greater than 100 µM. The GI50 [31] was 6.2 µM, the TGI [31] was greater than 100 µM and the GI50 [32] was 12.8 µM. The TGI [32] was 36.8 µM, the GI50 [33] was 50.5 µM and the TGI [33] was greater than 100 µM. For the same molecule, the GI50 [34] was 3.87 µM, the TGI [34] was 18.9 µM and the GI50 [35] was 5.99 µM. It also gave a TGI [35] of 37.5 µM, a GI50 [36] of 28 µM and a TGI [36] greater than 100 µM. The GI50 [37] was 8.66 µM, the TGI [37] was greater than 100 µM and the GI50 [38] was 7.32 µM. The TGI [38] was 65.6 µM, the GI50 [39] was 1.26 µM and the TGI [39] was 2.52 µM. The GI50 [40] was 0.886 µM, the TGI [40] was 3.92 µM and the GI50 [41] was 22 µM. For the same molecule, the TGI [41] was greater than 100 µM, the GI50 [42] was 13.4 µM and the TGI [42] was 62.6 µM. It also gave a GI50 [43] of 9.73 µM, a TGI [43] greater than 100 µM and a GI50 [44] of 5.97 µM. For the same molecule, the TGI [44] was 20 µM, the GI50 [45] was 17.1 µM and the TGI [45] was 67.1 µM. The GI50 [46] was 9.04 µM, the TGI [46] was 28.4 µM and the GI50 [47] was 11.5 µM. For the same molecule, the TGI [47] was 45.2 µM, the GI50 [48] was 9.51 µM and the TGI [48] was greater than 100 µM. It also gave a GI50 [49] of 7.72 µM, a TGI [49] greater than 100 µM and a GI50 [50] of 1.46 µM. The TGI [50] was 2.87 µM, the GI50 [51] was 11.3 µM and the TGI [51] was 25.7 µM. It also gave a GI50 [52] of 6.85 µM, a TGI [52] greater than 100 µM and a GI50 [53] of 12.5 µM. It also gave a TGI [53] of 58.6 µM, a GI50 [54] of 7.69 µM and a TGI [54] greater than 100 µM. The GI50 [55] was 10.1 µM, the TGI [55] was 28.5 µM and the GI50 [56] was 6.3 µM. The TGI [56] was 27.3 µM, the GI50 [57] was 10.9 µM and the TGI [57] was greater than 100 µM.

Reference: PubChem BioAssay (NCI)
